Reference: patent US20070275091A1, “Compositions And Methods For Improved Mucus Function” (priority 2004, published 2007)
“Also recorded” adds a separate entry of the source.

Columns and labels:
[1] = test system: frog palate mucociliary clearance; experiment: Frog palate mucociliary transport, agent applied topically; design: species or system Rana catesbiana
Experimental: (§1) The displacement of a 1-5 μL of endogenous frog mucus sample is timed as the trailing edge moves across a predetermined segment. MTV is calculated by dividing the distance traveled by the time elapsed, based on at least five measurements of the time required for the mucus sample to travel the defined distance (3).
In FIG. 4A, the effect of a mucomodulating agent (CaCl2) on mucociliary transport time is shown compared to Frog Ringers (FR) solution. Both solutions (FR and CaCl2) were applied topically to the palate in a volume of 5 μL. Thirty seconds were allowed for dispersion of the agent on the palate, followed by the measurement of mucociliary transport time. A droplet of mucus from the palate was placed on palate toward the mouth opening. Ciliary action transported the droplet down the palate. The measurement process (timing the movement of the droplet down the palate over a set distance of 4 mm as observed through a stereomicroscope with a reticulated eyepiece) was repeated five times and averaged to give a mean transport time for each solution.
As described above, mucomodulator solutions were applied topically to the palate in a volume of 5 μl. After 30 seconds to allow dispersion of the agent on the palate, measurements of mucociliary transport time were taken. None of the agents tested on the frog palate had any significant effect on mucociliary clearance until the highest delivered concentrations. Variations at low concentrations were due to variations in baseline frog palate mucociliary activity.

[2] = Filancemeter spinnability of mucus simulant; format: physicochemical; settings: model studies using vegetable polysaccharides
Experimental: (§2) Mucus simulants (MS) were exposed to airflow in a simulated cough machine (SCM). The MS ranged from non-viscous, non-elastic substances (water—control) to MS of varying degrees of viscosity and elasticity. Mucin crosslinking was increased by adding sodium tetraborate (mucomodulator B) to viscous solutions of locust bean gum (Sigma). Mucociliary clearance of the MS was assessed on the frog palate (FIG. 5A), elasticity in the Filancemeter (FIG. 6A) and the aerosol pattern in a “bulls-eye” target (FIG. 6B). The sample loaded was weighed before and after each cough maneuver to achieve a measure of expectoration (FIG. 5B).

[3] = Aerosol pattern on bulls-eye target, simulated cough machine; settings: increasing amounts added, 1.5 μL to 150 μL
Experimental: as §2

[4] = test system: tracheal mucociliary clearance; experiment: Tracheal mucus velocity in anesthetized dogs; format: in vivo; settings: for TMV: 7 mL over 20 min, jet nebulizer; for thread formation capability (a measure of elasticity) of the tracheal mucus: after aerosol exposure, not in sham or saline
Experimental: The mucomodulator aerosols were delivered to the intubated, spontaneously breathing dogs by jet nebulizer aerosol (7 mL over 20 min). Three aerosol concentrations were delivered: Low=0.001M; Med 0.01M; High=0.1M.
The following was assessed: cardio-respiratory pattern, tracheal mucus clearance, airway patency, and mucus viscoelasticity changes.

[5] = test system: frog palate epithelial model; experiment: Mucociliary clearance of borate-treated mucus simulant on frog palate; design: species or system Rana catesbiana; settings: control native frog palate mucus 24 mm/min
Experimental: as §1, §2

[6] = Simulated cough machine, expectoration of mucus simulant
Source text: The simulated cough machine system comprises the following elements: A 10-L tank with compressed air, which serves as a pressure reservoir that generates airflow, simulating the lungs during a cough maneuver. The pressure generated prior to a normal adult cough is approximately 8 psi pressure. This pressure value was used to simulate the airflow pattern of a human cough for each trial.
The model “trachea” is a 28 cm long rigid acrylic tube with a circular 2.5 cm cross-section. It has an 8 cm removable portion to allow us to measure the weight of the sample of mucus simulant loaded before and immediately after each “cough” maneuver. A solenoid valve located between the pressure reservoir and the model trachea control the gas released from the tank.
An aliquot of sputum or mucus simulant is layered on the bottom of the model trachea and driven forward by the pressurized gas. […] Displacement of the MS sample loaded, expressed in millimeters, is measured from the initial placement to the farthest point with a visible bulk concentration of mucus. […]
Mucus simulants (MS) were exposed to airflow in a simulated cough machine (SCM). […] Mucociliary clearance of the MS was assessed on the frog palate (FIG. 5A), elasticity in the Filancemeter (FIG. 6A) and the aerosol pattern in a “bulls-eye” target (FIG. 6B). […]

[7] = test system: mucus from the frog palate; settings: 5 μL of 0.1 M solution applied topically
Source text: From a bullfrog, Rana catesbiana, the upper portion of the head is removed modifying the procedures described in previous works. This is done by pithing the frog after lowering the body temperature to abolish pain sensation, and then cutting with scissors through from the junction of the posterior pharynx and esophagus out to the skin of the back. The palate is checked for macroscopic lesions, such as ulcers, or evidence of inflammation. The palate is then placed inside the frog chamber, a wooden box with a glass top and fitted glass front and manipulated through glove openings, and viewed under a dissecting stereomicroscope provided with a reticulated eyepiece. Humidity inside the box is maintained at 100% using a Pari nebulizer; the box is maintained at room temperature (22° to 24° C.). Before carrying out any measurement, the palate is allowed to stabilize inside the box for 15 minutes.
Samples of mucus and tissue are placed in 2.5% glutaraldehyde solution immediately after collection and stored at 4° C. until processing. Briefly, the samples are post-fixed in 1% osmium tetroxide in Millonig's buffer at room temperature for one hour. They are then washed briefly in a series of ethanol (50-100%), ten minutes at each step, followed by two additional periods of absolute ethanol (10 minutes each). […]

Compound: polymyxin B [reference compound]
- mucociliary clearance ([1]; 5 μl topical, highest concentration): sustained decrease
- mucociliary clearance ([1]; 5 μl topical, intermediate concentration): increase

Compound: [Na+].[Na+].[O-]B1OB2OB([O-])OB(O1)O2 [XL “B”, sodium tetraborate]
- elasticity relative to viscosity [2]: preferentially raises elasticity relative to viscosity
- particles in the aerosolization pattern [3]: reduced to almost disappear
- TMV ([4]; High = 0.1M aerosol): 4.3 ± 1.53 mm/min
- TMV ([4]; Low = 0.001M aerosol): 3.88 ± 1.66 mm/min
- TMV ([4]; Med = 0.01M aerosol): 4.96 ± 1.99 mm/min
- thread formation capability (a measure of elasticity) of the tracheal mucus [4]: increase
- mucociliary transport rate of treated mucus simulants (means) [5]: 16-20 mm/min
- amount of MS expelled from the SCM ([6]; 1.5 μL added): 47%
- amount of MS expelled from the SCM ([6]; 150 μL added): 96%

Compound: poly-L-arginine [Mucomodulator A]
- mucociliary clearance rate ([1]; 5 μl topical, 10^-8 to 10^-1 M, increasing applied concentration): significant increase

Compound: HMW dextran [XL “D”]
- TMV ([4]; High = 0.1M aerosol): 3.85 ± 2.2 mm/min
- TMV ([4]; Low = 0.001M aerosol): 4.43 ± 3.83 mm/min
- TMV ([4]; Med = 0.01M aerosol): 3.77 ± 1.65 mm/min
- thread formation capability (a measure of elasticity) of the tracheal mucus [4]: increase

Compound: [Ca+2].[Cl-].[Cl-] [CaCl2, calcium chloride]
- mucociliary transport time compared to Frog Ringers ([1]; 5 μL topical, 30 s dispersion, 4 mm distance): no significant effect; also recorded: did not alter the mucus transit time
- effect on mucus on the surface of the palate (SE micrograph) [7]: causes “clumping” of the mucus
